Source: patent US20140107121A1, “OLOPATADINE COMPOSITIONS AND USES THEREOF” (Alcon Research, Ltd., priority 2009, published 2014)

Assay: Olopatadine-PDE4 Inhibitor Solubility Study
Type: physicochemical
Conditions: for effect on the aqueous solubility of olopatadine: 0.1-1% PDE4 inhibitor, FIGS. 1 and 2; for ratio of solubility enhancement: molecules of Compound per olopatadine molecule, straight line fit
Protocol: The following experiments were conducted to determine the effect of compounds of Formula I on the aqueous solubility of olopatadine.
Formulations with the compositions shown in Table 1 were prepared for olopatadine solubility testing as follows: ten milliliter samples of the formulations containing either 0%, 0.1%, 0.3%, or 1% of either Compound 1 (4-(3,5-Dichloropyridin-4-ylamino)-7-methoxy-8-(6-(4-methylpiperazin-1-yl)hexyloxy)quinolin-2(1H)-one) or Compound 2 (4-(3,5-Dichloropyridin-4-ylamino)-7-methoxy-8-(6-morpholinohexyloxy)quinolin-2(1H)-one) with at least 1% Olopatadine Hydrochloride as shown in Table 2 were prepared and adjusted to the target pH. […] The samples were mixed on a rocker and the pH was readjusted to the target pH after one and six days of mixing. On day seven, the samples were filtered through an Acrodisc 25 mm GXF/GHP 0.2 micron filter. The first three milliliters of filtrate were collected for final pH measurement and the next 3 milliliters of filtrate were filled into two 1.5 mL HPLC vials for the olopatadine assay (as free base) as shown below. Compound 1 was not assayed in samples A through H as an assay method was not available. Duplicate Compound 1/Olopatadine samples for the olopatadine assay were injected neat into the HPLC. Compound 2 and olopatadine were assayed in samples I, J, and K. Single Compound 2/Olopatadine samples were diluted 1/10 with 50/50 Acetonitrile/Water and injected into the UPLC.
The final pH of the filtered samples was measured with an Orion 525A+pH meter using a Ross Semimicro combination pH electrode and automatic temperature probe.
The Compound 1 and Olopatadine HPLC assay was conducted using the following conditions: • Instrument: Waters 2695 Separation Module and Waters 2487 • Variable Wavelength Ultraviolet-Visible Detector with Empower Software • Column: Phenomenex Ultracarb C8, 5 micron, 150×4.6 mm • Mobile Phase: • Solvent A=Acetonitrile • Solvent B=100 milliMolar Potassium Phosphate with 0.1% Triethylamine adjusted to pH 3.0 with NaOH/HC1 • Flowrate=1 milliliter/Minute • Gradient:
• Detection: 299 nm Ultraviolet Absorbance • Injection Volume: 20 microliters • Olopatadine Retention Time: About 6.2 minutes
The Compound 2 and Olopatadine UPLC assay was conducted using the following conditions: • Instrument: Waters ACQUITY UPLC System with TUV Detector and Empower Software • Column: Acquity UPLC BEH Shield C18, 1.7 micron, 100×2.1 mm • Mobile Phase: • Solvent A=0.1% Phosphoric Acid adjusted to pH 3.0 with NaOH/HCl • Solvent B=Acetonitrile • Flowrate=0.3 milliliter/Minute • Gradient:
• Detection: 285 nm Ultraviolet Absorbance • Injection Volume: 3 microliters • AL-53817 Retention Time: About 4.1 minutes • Olopatadine Retention Time: About 4.5 minutes
The target pH of samples E through K was 5.2 and the pH readings of the suspensions were close to this value prior to filtration. However, after filtration the solution pH was generally about 0.2 pH units higher than the suspension pH. This pH shift is commonly observed when measuring the pH of a suspension versus a solution. Duplicate samples of A through H were assayed and the duplicate values were averaged.
The milliMolar (mM) concentrations were calculated by dividing the % w/v concentrations by the molecular weight and multiplying by 10000.

Compound	effect on the aqueous solubility of olopatadine	ratio of solubility enhancement	solubility of the PDE4 inhibitor in the formulation (pH 7.4)
COc1ccc2c(Nc3c(Cl)cncc3Cl)cc(=O)[nH]c2c1OCCCCCCN1CCN(C)CC1 [Compound 1, 4-(3,5-Dichloropyridin-4-ylamino)-7-methoxy-8-(6-(4-methylpiperazin-1-yl)hexyloxy)quinolin-2(1H)-one]	increased the aqueous solubility of olopatadine in a linear concentration dependent manner	about two molecules of the Compounds to one olopatadine molecule	
COc1ccc2c(Nc3c(Cl)cncc3Cl)cc(=O)[nH]c2c1OCCCCCCN1CCOCC1 [Compound 2, 4-(3,5-Dichloropyridin-4-ylamino)-7-methoxy-8-(6-morpholinohexyloxy)quinolin-2(1H)-one]	increased the aqueous solubility of olopatadine in a linear concentration dependent manner	about two molecules of the Compounds to one olopatadine molecule	not sufficiently soluble
